# Data reported in US10131652B2, “Pyrimidinyloxy benzene derivatives as herbicides” (E. I. DU PONT DE NEMOURS AND COMPANY, priority 2014, dated 2018).
# Key:
# Format in all cases: in vivo
# [1] = test system: blackgrass (Alopecurus myosuroides); experiment: Test B postemergence plant response
# In short: (§1)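 Visual injury rating, 0–100 (0 = no effect, 100 = complete control), vs untreated controls ~10 days after postemergence spray; greenhouse; potted loam soil/sand; plants 2–10 cm, 1–2 leaf stage.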
# [2] = test system: galium (catchweed bedstraw, Galium aparine); experiment: Test B postemergence plant response
# In short: as §1
# [3] = test system: barnyardgrass (Echinochloa crus-galli); experiment: Test C flooded paddy test plant response; conditions: Flood, 250 g ai/ha; scale of 0 to 100 where 0 is no effect and 100 is complete control; 13 to 15 days
# In short: (§2)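 Flooded-pot format, 3 cm water over soil maintained for the test duration; test compounds dispensed into the water at the 2-leaf stage. Greenhouse holding 13 to 15 days. Plants evaluated visually relative to untreated controls, 0 meaning no effect and 100 complete control.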
# rice (Oryza sativa) = experiment: Test C flooded paddy test plant response; conditions: Flood, 250 g ai/ha; scale of 0 to 100 where 0 is no effect and 100 is complete control; 13 to 15 days
# In short: as §2
# [4] = test system: ducksalad (Heteranthera limosa); experiment: Test C flooded paddy test plant response; conditions: Flood, 250 g ai/ha; scale of 0 to 100 where 0 is no effect and 100 is complete control; 13 to 15 days
# In short: as §2
# [5] = test system: small-flower umbrella sedge (Cyperus difformis); experiment: Test C flooded paddy test plant response; conditions: Flood, 250 g ai/ha; scale of 0 to 100 where 0 is no effect and 100 is complete control; 13 to 15 days
# In short: as §2
# [6] = test system: barnyardgrass (Echinochloa crus-galli); experiment: Test B pre-/postemergence plant response
# In short: (§3)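 Steps: plant seeds in loam soil–sand mix; spray soil preemergence, and in parallel spray 2–10 cm one- to two-leaf plants postemergence; hold ~10 days in greenhouse; visually rate injury against untreated controls (0 = no effect, 100 = complete control).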
# [7] = test system: Italian ryegrass (Lolium multiflorum); experiment: Test B pre-/postemergence plant response
# In short: as §3
# [8] = test system: pigweed (Amaranthus retroflexus); experiment: Test B pre-/postemergence plant response
# In short: as §3
# [9] = test system: wheat (Triticum aestivum); experiment: Test B pre-/postemergence plant response
# In short: as §3
# corn (Zea mays) = experiment: Test B pre-/postemergence plant response
# In short: as §3
# [10] = test system: giant foxtail (Setaria faberii); experiment: Test B pre-/postemergence plant response
# In short: as §3
# kochia (Kochia scoparia) = experiment: Test B pre-/postemergence plant response
# In short: as §3
# [11] = test system: ragweed (common ragweed, Ambrosia elatior); experiment: Test B pre-/postemergence plant response
# In short: as §3
# [12] = 125 g ai/ha, postemergence, 0 to 100 scale, 0 no effect, 100 complete control
# [13] = Postemergence, 31 g ai/ha, 0 to 100 scale (0 no effect, 100 complete control)
# [14] = 31 g ai/ha, Preemergence, 0 to 100 scale where 0 is no effect and 100 is complete control
# [15] = Preemergence, 125 g ai/ha, 0 to 100 scale (0 no effect, 100 complete control)
# [16] = Postemergence, 500 g ai/ha, 0 to 100 scale (0 no effect, 100 complete control)
# [17] = Preemergence, 125 g ai/ha, 0 to 100 scale where 0 is no effect and 100 is complete control
# [18] = Preemergence, 500 g ai/ha, 0 to 100 scale where 0 is no effect and 100 is complete control
# [19] = 31 g ai/ha, Postemergence, 0 to 100 scale, 0 no effect, 100 complete control
compound,measurement,setting,value
Brc1cnc(Oc2ccccc2-c2ccns2)nc1 [Compound 234],"Plant response rating, Blackgrass",[1]; [12],10
same,"Plant response rating, Blackgrass",[1]; [13],0
same,"Plant response rating, Galium",[2]; [12],0
same,"Plant response rating, Galium",[2]; [13],0
same,Barnyardgrass plant response rating,[3],0
same,Rice plant response rating,rice (Oryza sativa),0
same,Ducksalad plant response rating,[4],0
same,"Sedge, Umbrella plant response rating",[5],0
same,"Plant response rating, Barnyardgrass",[6]; [14],0
same,"Plant response rating, Barnyardgrass",[6]; [12],0
same,"Plant response rating, Barnyardgrass",[6]; [13],0
same,Barnyardgrass plant response rating,[6]; [15],0
same,"Plant response rating, Ryegrass, Italian",[7]; [14],0
same,"Plant response rating, Ryegrass, Italian",[7]; [12],0
same,"Plant response rating, Ryegrass, Italian",[7]; [13],0
same,"Ryegrass, Italian plant response rating",[7]; [15],0
same,"Plant response rating, Pigweed",[8]; [14],0
same,"Plant response rating, Pigweed",[8]; [12],20
same,"Plant response rating, Pigweed",[8]; [13],0
same,Pigweed plant response rating,[8]; [15],0
same,"Plant response rating, Wheat",[9]; [12],0
same,"Plant response rating, Wheat",[9]; [13],0
same,"Plant response rating, Corn",corn (Zea mays); [12],10
same,"Plant response rating, Corn",corn (Zea mays); [13],0
same,"Plant response rating, Foxtail, Giant",[10]; [14],0
same,"Plant response rating, Foxtail, Giant",[10]; [12],0
same,"Plant response rating, Foxtail, Giant",[10]; [13],0
same,"Foxtail, Giant plant response rating",[10]; [15],0
same,"Plant response rating, Kochia",kochia (Kochia scoparia); [14],0
same,"Plant response rating, Kochia",kochia (Kochia scoparia); [12],0
same,"Plant response rating, Kochia",kochia (Kochia scoparia); [13],0
same,Kochia plant response rating,kochia (Kochia scoparia); [15],0
same,"Plant response rating, Ragweed",[11]; [14],0
same,"Plant response rating, Ragweed",[11]; [12],10
same,"Plant response rating, Ragweed",[11]; [13],0
Clc1cnc(Oc2ccccc2-c2ccno2)nc1 [Compound 154],"Plant response rating, Blackgrass",[1]; [12],0
same,"Plant response rating, Blackgrass",[1]; [13],0
same,"Plant response rating, Galium",[2]; [12],0
same,"Plant response rating, Galium",[2]; [13],0
same,Barnyardgrass plant response rating,[3],0
same,Rice plant response rating,rice (Oryza sativa),0
same,Ducksalad plant response rating,[4],0
same,"Sedge, Umbrella plant response rating",[5],0
same,"Plant response rating, Barnyardgrass",[6]; [14],0
same,"Plant response rating, Barnyardgrass",[6]; [12],0
same,"Plant response rating, Barnyardgrass",[6]; [13],0
same,Barnyardgrass plant response rating,[6]; [15],0
same,"Plant response rating, Ryegrass, Italian",[7]; [14],0
same,"Plant response rating, Ryegrass, Italian",[7]; [12],0
same,"Plant response rating, Ryegrass, Italian",[7]; [13],0
same,"Ryegrass, Italian plant response rating",[7]; [15],0
same,"Plant response rating, Pigweed",[8]; [14],0
same,"Plant response rating, Pigweed",[8]; [12],0
same,"Plant response rating, Pigweed",[8]; [13],0
same,Pigweed plant response rating,[8]; [15],0
same,"Plant response rating, Wheat",[9]; [12],0
same,"Plant response rating, Wheat",[9]; [13],0
same,"Plant response rating, Corn",corn (Zea mays); [12],0
same,"Plant response rating, Corn",corn (Zea mays); [13],0
same,"Plant response rating, Foxtail, Giant",[10]; [14],0
same,"Plant response rating, Foxtail, Giant",[10]; [12],0
same,"Plant response rating, Foxtail, Giant",[10]; [13],0
same,"Foxtail, Giant plant response rating",[10]; [15],0
same,"Plant response rating, Kochia",kochia (Kochia scoparia); [14],0
same,"Plant response rating, Kochia",kochia (Kochia scoparia); [12],0
same,"Plant response rating, Kochia",kochia (Kochia scoparia); [13],0
same,Kochia plant response rating,kochia (Kochia scoparia); [15],0
same,"Plant response rating, Ragweed",[11]; [14],0
same,"Plant response rating, Ragweed",[11]; [12],0
same,"Plant response rating, Ragweed",[11]; [13],0
same,Ragweed plant response rating,[11]; [15],0
Cn1cc(-c2ccccc2Oc2ncc(Cl)cn2)nn1 [Compound 51],"Plant response rating, Blackgrass",[1]; [12],0
same,"Plant response rating, Blackgrass",[1]; [16],50
same,"Plant response rating, Galium",[2]; [12],60
same,"Plant response rating, Galium",[2]; [16],90
same,Barnyardgrass plant response rating,[3],0
same,Rice plant response rating,rice (Oryza sativa),0
same,Ducksalad plant response rating,[4],30
same,"Sedge, Umbrella plant response rating",[5],0
same,"Plant response rating, Barnyardgrass",[6]; [12],0
same,"Plant response rating, Barnyardgrass",[6]; [16],0
same,"Plant response rating, Barnyardgrass",[6]; [17],0
same,"Plant response rating, Barnyardgrass",[6]; [18],10
same,"Plant response rating, Ryegrass, Italian",[7]; [12],0
same,"Plant response rating, Ryegrass, Italian",[7]; [16],0
same,"Plant response rating, Ryegrass, Italian",[7]; [17],0
same,"Plant response rating, Ryegrass, Italian",[7]; [18],0
same,"Plant response rating, Pigweed",[8]; [12],70
same,"Plant response rating, Pigweed",[8]; [16],80
same,"Plant response rating, Pigweed",[8]; [17],50
same,"Plant response rating, Pigweed",[8]; [18],100
same,"Plant response rating, Wheat",[9]; [12],0
same,"Plant response rating, Wheat",[9]; [16],10
same,"Plant response rating, Corn",corn (Zea mays); [12],0
same,"Plant response rating, Corn",corn (Zea mays); [16],0
same,"Plant response rating, Foxtail, Giant",[10]; [12],10
same,"Plant response rating, Foxtail, Giant",[10]; [16],50
same,"Plant response rating, Foxtail, Giant",[10]; [17],10
same,"Plant response rating, Foxtail, Giant",[10]; [18],60
same,"Plant response rating, Kochia",kochia (Kochia scoparia); [12],70
same,"Plant response rating, Kochia",kochia (Kochia scoparia); [16],100
same,"Plant response rating, Kochia",kochia (Kochia scoparia); [17],10
same,"Plant response rating, Kochia",kochia (Kochia scoparia); [18],70
same,"Plant response rating, Ragweed",[11]; [12],20
same,"Plant response rating, Ragweed",[11]; [16],60
same,"Plant response rating, Ragweed",[11]; [17],50
same,"Plant response rating, Ragweed",[11]; [18],50
Brc1cnc(Oc2ccccc2-c2ccsc2)nc1 [Compound 232],"Plant response rating, Blackgrass",[1]; [12],0
same,"Plant response rating, Blackgrass",[1]; [13],0
same,"Plant response rating, Galium",[2]; [12],0
same,"Plant response rating, Galium",[2]; [13],0
same,Barnyardgrass plant response rating,[3],0
same,Rice plant response rating,rice (Oryza sativa),0
same,Ducksalad plant response rating,[4],0
same,"Sedge, Umbrella plant response rating",[5],0
same,"Plant response rating, Barnyardgrass",[6]; [14],0
same,"Plant response rating, Barnyardgrass",[6]; [12],0
same,"Plant response rating, Barnyardgrass",[6]; [13],0
same,Barnyardgrass plant response rating,[6]; [15],20
same,"Plant response rating, Ryegrass, Italian",[7]; [14],0
same,"Plant response rating, Ryegrass, Italian",[7]; [12],0
same,"Plant response rating, Ryegrass, Italian",[7]; [13],0
same,"Ryegrass, Italian plant response rating",[7]; [15],0
same,"Plant response rating, Pigweed",[8]; [14],20
same,"Plant response rating, Pigweed",[8]; [12],40
same,"Plant response rating, Pigweed",[8]; [13],10
same,Pigweed plant response rating,[8]; [15],30
same,"Plant response rating, Wheat",[9]; [12],0
same,"Plant response rating, Wheat",[9]; [13],0
same,"Plant response rating, Corn",corn (Zea mays); [12],0
same,"Plant response rating, Corn",corn (Zea mays); [13],0
same,"Plant response rating, Foxtail, Giant",[10]; [14],0
same,"Plant response rating, Foxtail, Giant",[10]; [12],0
same,"Plant response rating, Foxtail, Giant",[10]; [13],0
same,"Foxtail, Giant plant response rating",[10]; [15],10
same,"Plant response rating, Kochia",kochia (Kochia scoparia); [14],0
same,"Plant response rating, Kochia",kochia (Kochia scoparia); [12],0
same,"Plant response rating, Kochia",kochia (Kochia scoparia); [13],0
same,Kochia plant response rating,kochia (Kochia scoparia); [15],0
same,"Plant response rating, Ragweed",[11]; [14],0
same,"Plant response rating, Ragweed",[11]; [12],0
same,"Plant response rating, Ragweed",[11]; [13],0
same,Ragweed plant response rating,[11]; [15],0
FC(F)c1cc(-c2ccccc2Oc2ncc(Cl)cn2)co1 [Compound 141],"Plant response rating, Blackgrass",[1]; [19],0
same,"Plant response rating, Blackgrass",[1]; [12],0
same,"Plant response rating, Galium",[2]; [12],0
same,Barnyardgrass plant response rating,[3],0
same,Rice plant response rating,rice (Oryza sativa),0
same,Ducksalad plant response rating,[4],30
same,"Sedge, Umbrella plant response rating",[5],0
same,"Plant response rating, Barnyardgrass",[6]; [19],0
same,"Plant response rating, Barnyardgrass",[6]; [14],0
same,"Plant response rating, Barnyardgrass",[6]; [12],0
same,Barnyardgrass plant response rating,[6]; [15],0
same,"Plant response rating, Ryegrass, Italian",[7]; [14],0
same,"Plant response rating, Ryegrass, Italian",[7]; [12],0
same,"Ryegrass, Italian plant response rating",[7]; [15],0
same,"Plant response rating, Pigweed",[8]; [14],0
same,"Plant response rating, Pigweed",[8]; [12],20
same,Pigweed plant response rating,[8]; [15],0
same,"Plant response rating, Wheat",[9]; [12],0
same,"Plant response rating, Corn",corn (Zea mays); [19],0
same,"Plant response rating, Corn",corn (Zea mays); [12],30
same,"Plant response rating, Foxtail, Giant",[10]; [19],0
same,"Plant response rating, Foxtail, Giant",[10]; [14],0
same,"Plant response rating, Foxtail, Giant",[10]; [12],0
same,"Foxtail, Giant plant response rating",[10]; [15],0
same,"Plant response rating, Kochia",kochia (Kochia scoparia); [14],0
same,"Plant response rating, Kochia",kochia (Kochia scoparia); [12],0
same,Kochia plant response rating,kochia (Kochia scoparia); [15],0
same,"Plant response rating, Ragweed",[11]; [14],0
same,"Plant response rating, Ragweed",[11]; [12],0
same,Ragweed plant response rating,[11]; [15],0
